For data set [1] the following is noted: based on available in vitro data; SCCS opinion 2010; cited from earlier work.
In another data set the test system is microbial growth. Particulars: lowest tested concentration (1:2000, 44 ppm boric acid, 7.5 ppm boron); HVO and RME with lake water; initial results.

Structures are written as SMILES.

Procedure for microbial growth: 20 samples were prepared, 10×50 g of each fuel type, HVO and RME respectively. For each fuel type, there were four boron concentrations and a reference. One of each concentration and fuel was placed in a heating chamber at 45° C. and in front of a window subjected to sunlight. Water was taken from a lake nearby and stored in the heat chamber for an amount of time to enhance microorganism content and activity. 15 g of lake water was added to each sample, and the contaminated samples stored one week in 45° C. and exposed to sunlight. A stable solution of inorganic boron in ethanol was added to each sample in different dilutions, corresponding to the theoretical concentrations in the samples shown in table 3: [table]

Take `OB(O)O` [boric acid]: in data set [1], the mutagenicity entry is listed as “non-mutagenic”. Besides, the “effect on microbial growth in contaminated samples” value in the data set on microbial growth is recorded as “marked effect”.

(Values after patent US10954461B2, “Methods for preventing microbial growth and microbiologically influenced corrosion in a biodegradable and/or renewable fuel, hydraulic fluid and/or lubricant” (TRIBORON INTERNATIONAL AB, priority 2016, dated 2021).)
